For one experiment, the target named is T1, CDK4/CyclinD1 (Homo sapiens, UniProt P11802).
T1 construct: purchased ProQinase 0142-0143-1
The experiment is described as follows: CDK4/CyclinD1 kinase inhibitory activity (Caliper mobility shift). Particulars: enzyme 20 nM, ATP 672 uM, 28° C. 30 min; read-out: CDK4/Cyclin D1 IC50. The class given is biochemical. As to the method:
CDK4/CyclinD1 kinase inhibitory activity (IC50): 5 μl of various dilutions of test compound in 1× kinase buffer (20 mM HEPES, pH 7.5, 10 mM MgCl2, 2 mM DTT and 0.01% Triton X-100) was mixed with 10 μL of either CDK4/Cyclin D1 (ProQinase, 0142-0143-1 #, final concentration 20 nM in 1× Kinase buffer) or in 384 plates and incubated at room temperature for 10 min. To initiate each reaction, 10 μL of peptide solution containing fluorescently-labeled-peptide 8(5-FAM-IPTSPITTTYFFFKKK-COOH, GL, 112396 #, final concentration 3000 nM) and ATP (final concentration 672 uM for CDK4/CyclinD1) in 1×Kinase buffer was added to each of the wells containing test compound and CDK4/CyclinD1 mixture. The reaction is then allowed to proceed at 28° C. for 30 min and terminated by the addition of 25 μL stop buffer (100 mM HEPES pH 7.5, 50 mM EDTA, 0.2% Coating Reagent #3 (Perkin Elmer, 760050 #) and 0.015% Brij-35).
(§1) Following the kinase reaction, Caliper EZ reader II (Downstream voltages: −500V, Upstream voltages: −2250V, Base pressure −0.5 PSI, Screen pressure −1.2 PSI) was used to separate the phosphorylated (product) and the unphosphorylated (substrate) fluorescently-labeled peptide 8 based on their different mobility. Both substrate and product were measured and the ratio of these values were used to generate % conversion by Caliper EZ reader II. These conversion values were then transformed into % inhibition of kinase activity using the formula: % Inhibition=[(MA−X)/(MA−MI)]×100% where MA=conversion value of DMSO only controls, MI=conversion value of no enzyme controls and X=conversion value at any given compound dose. IC50 values were then calculated by plotting dose-response curves and then using the XLfit application in Excel software.

The next experiment concerns the target T2, CDK6/CyclinD3 (Homo sapiens, UniProt Q00534).
T2 construct: purchased Carna 04-107
Kind of experiment: CDK6/CyclinD3 kinase inhibitory activity (Caliper mobility shift). The format is biochemical. Particulars: enzyme 15 nM, ATP 800 μM, 28° C. 30 min; read-out: CDK6/Cyclin D3 IC50. As to the method: CDK6/CyclinD3 kinase inhibitory activity (IC50): 5 μl of various dilutions of test compound in 1× kinase buffer (50 mM HEPES pH 7.5, 10 mM MgCl2, 2 mM DTT and 0.01% Brij-35) was mixed with 10 μL of CDK6/CyclinD3 (Carna, 04-107 #, final concentration 15 nM in 1× Kinase buffer) in 384 plates and incubated at room temperature for 10 min. To initiate each reaction, 10 μL of peptide solution containing fluorescently-labeled -peptide 8(5-FAM-IPTSPITTTYFFFKKK-COOH, GL, 112396 #, final concentration 3000 nM) and ATP (final concentration 800 μM for CDK6/CyclinD3 in 1× Kinase buffer was added to each of the wells containing test compound and CDK6/CyclinD3. The reaction is then allowed to proceed at 28° C. for 30 min and terminated by the addition of 25 μL stop buffer (100 mM HEPES pH 7.5, 50 mM EDTA, 0.2% Coating Reagent #3 (Perkin Elmer, 760050 #) and 0.015% Brij-35).
as §1

Where only a bound is given, the exact number is not on record here.

T2 sequence (Q00534 whole entry): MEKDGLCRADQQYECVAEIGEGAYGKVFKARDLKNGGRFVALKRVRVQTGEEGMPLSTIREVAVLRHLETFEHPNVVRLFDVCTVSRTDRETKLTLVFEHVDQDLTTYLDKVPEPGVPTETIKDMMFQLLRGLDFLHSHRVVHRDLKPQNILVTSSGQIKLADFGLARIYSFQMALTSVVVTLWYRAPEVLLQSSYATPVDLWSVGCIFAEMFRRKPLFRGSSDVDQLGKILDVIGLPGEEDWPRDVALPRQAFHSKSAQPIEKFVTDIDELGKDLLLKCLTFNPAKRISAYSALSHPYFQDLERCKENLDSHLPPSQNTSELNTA
T2 sequence (P30281 whole entry partner): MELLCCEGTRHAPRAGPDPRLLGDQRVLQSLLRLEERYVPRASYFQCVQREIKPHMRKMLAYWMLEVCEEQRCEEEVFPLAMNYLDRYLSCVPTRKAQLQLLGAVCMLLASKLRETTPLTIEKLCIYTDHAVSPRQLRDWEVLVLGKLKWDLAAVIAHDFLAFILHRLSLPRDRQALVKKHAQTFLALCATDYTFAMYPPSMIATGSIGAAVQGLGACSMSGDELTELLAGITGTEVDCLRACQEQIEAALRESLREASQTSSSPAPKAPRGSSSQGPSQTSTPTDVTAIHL
T1 sequence (P11802 whole entry): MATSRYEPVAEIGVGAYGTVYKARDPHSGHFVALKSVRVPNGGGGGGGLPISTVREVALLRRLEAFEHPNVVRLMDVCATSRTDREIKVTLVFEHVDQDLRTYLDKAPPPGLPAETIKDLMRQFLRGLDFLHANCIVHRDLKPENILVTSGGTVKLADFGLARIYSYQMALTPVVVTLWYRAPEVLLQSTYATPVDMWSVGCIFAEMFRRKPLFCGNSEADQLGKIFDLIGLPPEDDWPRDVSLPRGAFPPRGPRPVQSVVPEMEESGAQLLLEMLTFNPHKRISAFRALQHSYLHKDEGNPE
T1 sequence (P24385 whole entry partner): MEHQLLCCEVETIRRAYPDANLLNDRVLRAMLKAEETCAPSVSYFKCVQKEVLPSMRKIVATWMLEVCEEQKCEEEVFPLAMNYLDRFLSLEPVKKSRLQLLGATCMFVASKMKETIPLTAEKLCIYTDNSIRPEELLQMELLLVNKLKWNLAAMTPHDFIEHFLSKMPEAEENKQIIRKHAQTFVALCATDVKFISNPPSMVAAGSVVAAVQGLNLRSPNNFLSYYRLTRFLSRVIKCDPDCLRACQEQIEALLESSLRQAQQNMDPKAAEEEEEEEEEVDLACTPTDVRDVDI

Regarding `CCC(O)c1cc2cc(-c3nc(N[C@@H]4CCOC[C@H]4O)ncc3Cl)cc(F)c2nc1C` (single isomer, unassigned) [Example 39b], the IC50 on CDK4/CyclinD1 was less than 10 nM; on CDK6/CyclinD3, 100 to 1000 nM.
For `Cc1nc2c(cnc3ccc(-c4nc(N[C@@H]5CCOC[C@H]5O)ncc4Cl)cc32)[nH]1` [Example 10, (3S,4R)-4-((5-chloro-4-(2-methyl-3H-imidazo[4,5-c]quinolin-8-yl)pyrimidin-2-yl)amino)tetrahydro-2H-pyran-3-ol] the same measures were 100 to 1000 nM and not below 1000 nM.
For `[2H]c1nc2c(F)cc(-c3nc(N[C@@H]4CCOC[C@H]4O)ncc3F)cc2c2c1CC1(CC1)NC2` [Example 70], the IC50 at CDK4/CyclinD1 is less than 10 nM; on CDK6/CyclinD3 it was 100 to 1000 nM.
For `Cc1c(C(C)NC2CC2)cnc2c(F)cc(-c3nc(N[C@@H]4CCOC[C@H]4O)ncc3F)cc12` (single isomer, unassigned) [Example 93b] the same measures were less than 10 nM and 100 to 1000 nM.
On the same counts, the results for `CNC(C)c1cnc2c(F)cc(-c3nc(N[C@@H]4CCOC[C@H]4O)ncc3F)cc2c1Cl` (single isomer, unassigned) [Example 64a] are 10 to 100 nM and 100 to 1000 nM.
Regarding `CC(C)(O)c1cnc2c(F)cc(-c3ccnc(N[C@@H]4CCOC[C@H]4O)n3)cc2c1Cl` [Example 97], the IC50 on CDK4/CyclinD1 fell in the range of 10 to 100 nM; on CDK6/CyclinD3, 100 to 1000 nM.
Regarding `Cc1nc2c(F)cc(-c3ccnc(N[C@@H]4CCOC[C@H]4O)n3)cc2c(C)c1C(C)O` (single isomer, unassigned) [Example 82b], the IC50 lay in the range of 10 to 100 nM on CDK4/CyclinD1 and 100 to 1000 nM at CDK6/CyclinD3.
For `[2H]c1nc2c(F)cc(-c3ccnc(N[C@@H]4CCOC[C@H]4O)n3)cc2c2c1CC(C)(C)NC2` [Example 101] the same measures were less than 10 nM and 100 to 1000 nM.
On the same counts, the results for `CCC(O)c1cc2cc(-c3nc(N[C@@H]4CCOC[C@H]4O)ncc3Cl)cc(F)c2nc1C` (single isomer, unassigned) [Example 39a] are less than 10 nM and 100 to 1000 nM.
`O[C@@H]1COCC[C@H]1Nc1ncc(Cl)c(-c2cc(F)c3ncc(-c4ncc[nH]4)cc3c2)n1` [Example 28]: the results for the IC50 at CDK4/CyclinD1 and on CDK6/CyclinD3 were 10 to 100 nM and 100 to 1000 nM, respectively.
For `Cc1nc2c(F)cc(-c3nc(N[C@@H]4CCOC[C@H]4O)ncc3Cl)cc2cc1C(C)NC1CC1` (single isomer, unassigned) [Example 73a] the same measures were 10 to 100 nM and 100 to 1000 nM.
On the same counts, the results for `[2H]c1nc(N[C@@H]2CCOC[C@H]2O)nc(-c2cc(F)c3nc(C)c(C(C)NC4CC4)cc3c2)c1F` (single isomer, unassigned) [Example 77a] are less than 10 nM and 100 to 1000 nM.
On the same counts, the results for `CNC(C)c1cnc2c(F)cc(-c3nc(N[C@@H]4CCOC[C@H]4O)ncc3Cl)cc2c1Cl` (single isomer, unassigned) [Example 63a] are 10 to 100 nM and 100 to 1000 nM.
As for `[2H]c1nc2c(F)cc(-c3nc(N[C@@H]4CCOC[C@H]4O)ncc3Cl)cc2c2c1CC1(CC1)NC2` [Example 72], the IC50 on CDK4/CyclinD1 is less than 10 nM; on CDK6/CyclinD3, 100 to 1000 nM.
On the same counts, the results for `Cc1nc2c(F)cc(-c3cc(N[C@@H]4CCOC[C@H]4O)ncc3F)cc2cc1C(C)(C)O` [Example 78] are less than 10 nM and 100 to 1000 nM.
In the case of `CN1Cc2c(cnc3c(F)cc(-c4nc(N[C@@H]5CCOC[C@H]5O)ncc4Cl)cc23)C(O)C1(C)C` (single isomer, unassigned) [Example 111b], the IC50 was 100 to 1000 nM on CDK4/CyclinD1 and not below 1000 nM at CDK6/CyclinD3.
On the same counts, the results for `Cc1cc(C(C)(C)O)c2cc(-c3nc(N[C@@H]4CCOC[C@H]4O)ncc3Cl)cc(F)c2n1` [Example 75] are 10 to 100 nM and 100 to 1000 nM.
On the same counts, the results for `[2H]C1([2H])NC(C)(C)Cc2cnc3c(F)cc(-c4nc(N[C@@H]5CCOC[C@H]5O)ncc4F)cc3c21` [Example 62, (3S,4R)-4-((5-fluoro-4-(7-fluoro-3,3-dimethyl-1,2,3,4-tetrahydrobenzo[c][2,6]naphthyridin-9-yl-1,1-d2)pyrimidin-2-yl)amino)tetrahydro-2H-pyran-3-ol] are less than 10 nM and 10 to 100 nM.
For `Cc1cnc(N[C@@H]2CCOC[C@H]2O)nc1-c1cc(F)c2nc(C)c3c(c2c1)CNC(C)(C)C3` [Example 104] the same measures were 10 to 100 nM and not below 1000 nM.
Regarding `CC(C)(O)c1cnc2c(F)cc(-c3nc(N[C@@H]4CCOC[C@H]4O)ncc3C#N)cc2c1` [Example 2, 4-(8-fluoro-3-(2-hydroxypropan-2-yl)quinolin-6-yl)-2-(((3S,4R)-3-hydroxytetrahydro-2H-pyran-4-yl)amino)pyrimidine-5-carbonitrile], the values for the IC50 at CDK4/CyclinD1 and at CDK6/CyclinD3 were 10 to 100 nM and 100 to 1000 nM, respectively.
On the same counts, the results for `CC1NCCc2cnc3c(F)cc(-c4nc(N[C@@H]5CCOC[C@H]5O)ncc4Cl)cc3c21` (single isomer, unassigned) [Example 31a] are 10 to 100 nM and not below 1000 nM.
As to `Cc1c(C(C)(C)O)nnc2c(F)cc(-c3nc(N[C@@H]4CCOC[C@H]4O)ncc3Cl)cc12` [Example 87], the results for the IC50 at CDK4/CyclinD1 and at CDK6/CyclinD3 were 10 to 100 nM and 100 to 1000 nM, respectively.
On the same counts, the results for `CC(C)(O)c1cnc2c(F)cc(-c3nc(Nc4ccc(C(=O)CO)cn4)ncc3F)cc2c1Cl` [Example 80] are 10 to 100 nM and not below 1000 nM.
For `CNC(C)c1cnc2c(F)cc(-c3nc(N[C@@H]4CCOC[C@H]4O)ncc3F)cc2c1Cl` (single isomer, unassigned) [Example 64b] the same measures were 10 to 100 nM and 100 to 1000 nM.
On the same counts, the results for `CCc1c(C(C)(C)O)nnc2c(F)cc(-c3nc(N[C@@H]4CCOC[C@H]4O)ncc3Cl)cc12` [Example 61, (3S,4R)-4-((5-chloro-4-(4-ethyl-8-fluoro-3-(2-hydroxypropan-2-yl)cinnolin-6-yl)pyrimidin-2-yl)amino)tetrahydro-2H-pyran-3-ol] are 10 to 100 nM and 100 to 1000 nM.
Turning to `O[C@@H]1COCC[C@H]1Nc1ncc(Cl)c(-c2cc(F)c3ncc(C4(O)CCC4)cc3c2)n1` [Example 16, (3S,4R)-4-((5-chloro-4-(8-fluoro-3-(1-hydroxycyclobutyl)quinolin-6-yl)pyrimidin-2-yl)amino)tetrahydro-2H-pyran-3-ol], the IC50 was less than 10 nM on CDK4/CyclinD1 and 100 to 1000 nM on CDK6/CyclinD3.
On the same counts, the results for `CC(C)(O)c1cnc2c(F)cc(-c3cc(N[C@@H]4CCOC[C@H]4O)ncc3Cl)cc2c1Cl` [Example 42] are less than 10 nM and 100 to 1000 nM.
Consider `COC1c2cnc3c(F)cc(-c4nc(N[C@@H]5CCOC[C@H]5O)ncc4F)cc3c2CNC1(C)C` (single isomer, unassigned) [Example 108b], for which the IC50 on CDK4/CyclinD1 is less than 10 nM; on CDK6/CyclinD3, 100 to 1000 nM.
On the same counts, the results for `Cc1c(C(C)O)cnc2c(F)cc(-c3nc(N[C@@H]4CCOC[C@H]4O)ncc3Cl)cc12` (single isomer, unassigned) [Example 88b] are less than 10 nM and 10 to 100 nM.
For `[2H]c1nc(N[C@@H]2CCOC[C@H]2O)nc(-c2cc(F)c3nc(C)c4c(c3c2)CNC(C)(C)C4)c1F` [Example 105] the same measures were less than 10 nM and 100 to 1000 nM.
On the same counts, the results for `[2H]c1nc(N[C@@H]2CCOC[C@H]2O)nc(-c2cc(F)c3nc(C)c(C(C)NC4CC4)cc3c2)c1F` (single isomer, unassigned) [Example 77b] are less than 10 nM and 100 to 1000 nM.
As to `CNC(C)c1cnc2c(F)cc(-c3nc(N[C@@H]4CCOC[C@H]4O)ncc3Cl)cc2c1C` (single isomer, unassigned) [Example 48a], the values for the IC50 on CDK4/CyclinD1 and at CDK6/CyclinD3 were less than 10 nM and 100 to 1000 nM, respectively.
On the same counts, the results for `O[C@@H]1COCC[C@H]1Nc1ncc(Cl)c(-c2cc(F)c3ncc(C4(O)CC4)c(Cl)c3c2)n1` [Example 44] are less than 10 nM and 10 to 100 nM.

(Values after patent US20260242395A1, “AMINOHETEROARYL KINASE INHIBITORS” (ALLORION THERAPEUTICS INC, priority 2022, published 2026).)
